System: 292921-168-R-J2-PDC complex spheroid viability
Assay: Anticancer human tumor 292921-168-R-J2-PDC patient-derived pancreatic carcinoma cell line growth inhibition
Conditions: for IC50: curve of first compound; for viability, T/C: stronger effect = lower value
Procedure, shortened: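 Complex spheroids of tumor cells with HUVEC and human MSCs, exposed to iadademstat combined with other agents. Each agent tested in half-log steps from near clinical Cmax (else 10 microM top), DMSO ≤0.25%.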

[1] = second compound 0.1 µM, first compound 0.0316 µM
[2] = second compound 0.1 µM, first compound 0.1 µM
[3] = second compound 0.1 µM, first compound 0.316 µM
[4] = second compound 0.1 µM, first compound 1 µM
[5] = second compound 0.1 µM, first compound 3.16 µM
[6] = second compound 0.1 µM, first compound 10 µM
[7] = second compound 0.316 µM, first compound 0.0316 µM
[8] = second compound 0.316 µM, first compound 0.1 µM
[9] = second compound 0.316 µM, first compound 0.316 µM
[10] = second compound 0.316 µM, first compound 1 µM
[11] = second compound 0.316 µM, first compound 3.16 µM
[12] = second compound 0.316 µM, first compound 10 µM
[13] = second compound 1 µM, first compound 0.0316 µM
[14] = second compound 1 µM, first compound 0.1 µM
[15] = second compound 1 µM, first compound 0.316 µM
[16] = second compound 1 µM, first compound 1 µM
[17] = second compound 1 µM, first compound 3.16 µM
[18] = second compound 1 µM, first compound 10 µM
[19] = second compound 3.16 µM, first compound 0.0316 µM
[20] = second compound 3.16 µM, first compound 0.1 µM
[21] = second compound 3.16 µM, first compound 0.316 µM
[22] = second compound 3.16 µM, first compound 1 µM
[23] = second compound 3.16 µM, first compound 3.16 µM
[24] = second compound 3.16 µM, first compound 10 µM
[25] = second compound 10 µM, first compound 0.0316 µM
[26] = second compound 10 µM, first compound 0.1 µM
[27] = second compound 10 µM, first compound 0.316 µM
[28] = second compound 10 µM, first compound 1 µM
[29] = second compound 10 µM, first compound 3.16 µM
[30] = second compound 10 µM, first compound 10 µM
[31] = second compound 0.1 µM, first compound 0.00316 µM
[32] = second compound 0.1 µM, first compound 0.01 µM
[33] = second compound 0.316 µM, first compound 0.00316 µM
[34] = second compound 0.316 µM, first compound 0.01 µM
[35] = second compound 1 µM, first compound 0.00316 µM
[36] = second compound 1 µM, first compound 0.01 µM
[37] = second compound 3.16 µM, first compound 0.00316 µM
[38] = second compound 3.16 µM, first compound 0.01 µM
[39] = second compound 10 µM, first compound 0.00316 µM
[40] = second compound 10 µM, first compound 0.01 µM
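Also: seven day compound exposure before luminescent viability read.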
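For viability, T/C in this document: 100% = DMSO vehicle control wells.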

CC(C)c1c(-c2ccccc2)nc2c(C#N)c[nH]n2c1=O + NC1CC1c1ccc(-c2cccc(O)c2)cc1
IC50 (second compound 0.1 µM): > 10 µM | IC50 (second compound 0.316 µM): > 10 µM | IC50 (second compound 1 µM): > 10 µM | IC50 (second compound 3.16 µM): > 10 µM | IC50 (second compound 10 µM): > 10 µM | viability, T/C [1]: 79.9% | viability, T/C [2]: 84% | viability, T/C [3]: 82% | viability, T/C [4]: 70.7% | viability, T/C [5]: 78.4% | viability, T/C [6]: 66% | viability, T/C [7]: 81.7% | viability, T/C [8]: 73% | viability, T/C [9]: 80.7% | viability, T/C [10]: 69.5% | viability, T/C [11]: 71.4% | viability, T/C [12]: 60.4% | viability, T/C [13]: 71.8% | viability, T/C [14]: 68.9% | viability, T/C [15]: 66.8% | viability, T/C [16]: 66.2% | viability, T/C [17]: 61.1% | viability, T/C [18]: 55.7% | viability, T/C [19]: 58.6% | viability, T/C [20]: 65.3% | viability, T/C [21]: 64.4% | viability, T/C [22]: 57.9% | viability, T/C [23]: 52.2% | viability, T/C [24]: 59.6% | viability, T/C [25]: 58.1% | viability, T/C [26]: 53.2% | viability, T/C [27]: 58.4% | viability, T/C [28]: 53.7% | viability, T/C [29]: 49.8% | viability, T/C [30]: 52.2%

COc1ccc([C@@H](O)c2cc(-c3ncnc4cc(N5CCOCC5)ccc34)c(F)cc2Cl)nn1 + NC1CC1c1ccc(-c2cccc(O)c2)cc1
IC50 (second compound 0.1 µM): 0.403 µM | IC50 (second compound 0.316 µM): 0.27 µM | IC50 (second compound 1 µM): 0.158 µM | IC50 (second compound 3.16 µM): 0.131 µM | IC50 (second compound 10 µM): < 0.0316 µM | viability, T/C [1]: 73.1% | viability, T/C [2]: 73.9% | viability, T/C [3]: 53.5% | viability, T/C [4]: 30.8% | viability, T/C [5]: 20.9% | viability, T/C [6]: 10.5% | viability, T/C [7]: 72.5% | viability, T/C [8]: 69.6% | viability, T/C [9]: 44.4% | viability, T/C [10]: 28.2% | viability, T/C [11]: 18.2% | viability, T/C [12]: 10.7% | viability, T/C [13]: 57.7% | viability, T/C [14]: 56.9% | viability, T/C [15]: 41.9% | viability, T/C [16]: 28.1% | viability, T/C [17]: 18% | viability, T/C [18]: 11.3% | viability, T/C [19]: 54.9% | viability, T/C [20]: 55.8% | viability, T/C [21]: 38.8% | viability, T/C [22]: 23.4% | viability, T/C [23]: 16.8% | viability, T/C [24]: 11.5% | viability, T/C [25]: 44.6% | viability, T/C [26]: 43.3% | viability, T/C [27]: 30% | viability, T/C [28]: 20.8% | viability, T/C [29]: 15.5% | viability, T/C [30]: 12.2%

CC[C@@]1(O)C(=O)OCc2c1cc1n(c2=O)Cc2cc3c(CN(C)C)c(O)ccc3nc2-1 + NC1CCC(NC2CC2c2ccccc2)CC1
IC50 (second compound 0.1 µM): 0.00211 µM | IC50 (second compound 0.316 µM): 0.00165 µM | IC50 (second compound 1 µM): 0.00158 µM | IC50 (second compound 3.16 µM): 0.00107 µM | IC50 (second compound 10 µM): 0.000869 µM | viability, T/C (second compound 0.1 µM, first compound 0.000316 µM): 64.5% | viability, T/C (second compound 0.1 µM, first compound 0.001 µM): 60.2% | viability, T/C [31]: 44.6% | viability, T/C [32]: 19.7% | viability, T/C [1]: 8.14% | viability, T/C [2]: 4.05% | viability, T/C (second compound 0.316 µM, first compound 0.000316 µM): 61.4% | viability, T/C (second compound 0.316 µM, first compound 0.001 µM): 61% | viability, T/C [33]: 37.9% | viability, T/C [34]: 18.5% | viability, T/C [7]: 8.83% | viability, T/C [8]: 4.07% | viability, T/C (second compound 1 µM, first compound 0.000316 µM): 61.2% | viability, T/C (second compound 1 µM, first compound 0.001 µM): 56.4% | viability, T/C [35]: 40.9% | viability, T/C [36]: 19.4% | viability, T/C [13]: 10.6% | viability, T/C [14]: 4.35% | viability, T/C (second compound 3.16 µM, first compound 0.000316 µM): 54.9% | viability, T/C (second compound 3.16 µM, first compound 0.001 µM): 50.8% | viability, T/C [37]: 38.2% | viability, T/C [38]: 18.5% | viability, T/C [19]: 8.6% | viability, T/C [20]: 3.74% | viability, T/C (second compound 10 µM, first compound 0.000316 µM): 51.4% | viability, T/C (second compound 10 µM, first compound 0.001 µM): 50.9% | viability, T/C [39]: 36.9% | viability, T/C [40]: 15.6% | viability, T/C [25]: 8.03% | viability, T/C [26]: 3.69%

COc1cc(C2c3cc4c(cc3C(OC3OC5COC(C)OC5C(O)C3O)C3COC(=O)C23)OCO4)cc(OC)c1O (stereo not given) + NC1CCC(NC2CC2c2ccccc2)CC1
IC50 (second compound 0.1 µM): 0.0238 µM | IC50 (second compound 0.316 µM): 0.0242 µM | IC50 (second compound 1 µM): 0.0163 µM | IC50 (second compound 3.16 µM): 0.0153 µM | IC50 (second compound 10 µM): 0.00952 µM | viability, T/C (second compound 0.1 µM, first compound 0.00949 µM): 62.7% | viability, T/C (second compound 0.1 µM, first compound 0.03 µM): 48.7% | viability, T/C (second compound 0.1 µM, first compound 0.0949 µM): 27.9% | viability, T/C (second compound 0.1 µM, first compound 0.3 µM): 20.8% | viability, T/C (second compound 0.1 µM, first compound 0.949 µM): 11.2% | viability, T/C (second compound 0.1 µM, first compound 3 µM): 5.3% | viability, T/C (second compound 0.316 µM, first compound 0.00949 µM): 67.6% | viability, T/C (second compound 0.316 µM, first compound 0.03 µM): 45.2% | viability, T/C (second compound 0.316 µM, first compound 0.0949 µM): 29.6% | viability, T/C (second compound 0.316 µM, first compound 0.3 µM): 21.5% | viability, T/C (second compound 0.316 µM, first compound 0.949 µM): 8.7% | viability, T/C (second compound 0.316 µM, first compound 3 µM): 6.82% | viability, T/C (second compound 1 µM, first compound 0.00949 µM): 56% | viability, T/C (second compound 1 µM, first compound 0.03 µM): 42.9% | viability, T/C (second compound 1 µM, first compound 0.0949 µM): 30.5% | viability, T/C (second compound 1 µM, first compound 0.3 µM): 20% | viability, T/C (second compound 1 µM, first compound 0.949 µM): 8.76% | viability, T/C (second compound 1 µM, first compound 3 µM): 5.56% | viability, T/C (second compound 3.16 µM, first compound 0.00949 µM): 56.1% | viability, T/C (second compound 3.16 µM, first compound 0.03 µM): 40.5% | viability, T/C (second compound 3.16 µM, first compound 0.0949 µM): 30.7% | viability, T/C (second compound 3.16 µM, first compound 0.3 µM): 19% | viability, T/C (second compound 3.16 µM, first compound 0.949 µM): 8.55% | viability, T/C (second compound 3.16 µM, first compound 3 µM): 7.39% | viability, T/C (second compound 10 µM, first compound 0.00949 µM): 50.1% | viability, T/C (second compound 10 µM, first compound 0.03 µM): 38.8% | viability, T/C (second compound 10 µM, first compound 0.0949 µM): 27.3% | viability, T/C (second compound 10 µM, first compound 0.3 µM): 16.3% | viability, T/C (second compound 10 µM, first compound 0.949 µM): 9.55% | viability, T/C (second compound 10 µM, first compound 3 µM): 6.68%

Nc1ncn(C2CC(O)C(CO)O2)c(=O)n1 (stereo not given) + NC1CCC(NC2CC2c2ccccc2)CC1
IC50 (second compound 0.1 µM): 0.279 µM | IC50 (second compound 0.316 µM): 0.103 µM | IC50 (second compound 1 µM): 0.064 µM | IC50 (second compound 3.16 µM): 0.105 µM | IC50 (second compound 10 µM): 0.0405 µM | viability, T/C [31]: 63.8% | viability, T/C [32]: 70.5% | viability, T/C [1]: 62.2% | viability, T/C [2]: 49.6% | viability, T/C [3]: 50.2% | viability, T/C [4]: 44.2% | viability, T/C [33]: 67% | viability, T/C [34]: 69% | viability, T/C [7]: 61.5% | viability, T/C [8]: 49.8% | viability, T/C [9]: 46.6% | viability, T/C [10]: 42.6% | viability, T/C [35]: 59.7% | viability, T/C [36]: 58.6% | viability, T/C [13]: 52.8% | viability, T/C [14]: 45.2% | viability, T/C [15]: 47% | viability, T/C [16]: 42.7% | viability, T/C [37]: 54.8% | viability, T/C [38]: 53.9% | viability, T/C [19]: 55.1% | viability, T/C [20]: 52.3% | viability, T/C [21]: 41.3% | viability, T/C [22]: 35.6% | viability, T/C [39]: 53.1% | viability, T/C [40]: 57.4% | viability, T/C [25]: 49.3% | viability, T/C [26]: 45.8% | viability, T/C [27]: 36% | viability, T/C [28]: 35.4%

Reference: PubChem BioAssay AID1918934 (Molecular Pharmacology Branch, DTP, NCI, 2023)
